Results from patent US7550438B2, “Methods for production of growth-promoting proteins and peptides for kidney epithelial cells” (The University of Chicago, priority 1997, dated 2009).

Tests used:
[1] = test system: monkey kidney epithelial cells of the BSC-1 line; assay: Growth-promoting (mitogenic) activity: number of cells in BSC-1 cultures counted four days after addition; type: cell-based, African green monkey
Protocol: For the assay, cells were detached from the dish with a solution of trypsin and an aliquot was counted in a hemocytometer.
Nontransformed monkey kidney epithelial cells of the BSC-1 line were grown to confluence in Dulbecco's modified Eagle's medium containing 1% calf serum and […] in 55-mm culture dishes at 38° C. in a CO2 incubator. When cells achieved a density of about 10^6 per dish, the spent medium was removed and replaced with fresh medium containing 0.5% calf serum and the 14-amino acid peptide (0.5 μg/ml). Additions of each of the mitogenic signals at maximal concentration were made to the culture medium. Four days later the number of cells in each culture was counted in a hemocytometer. Values obtained were the mean of 3 separate cultures.
Nontransformed monkey kidney epithelial cells of the BSC-1 line were grown to confluence in Dulbecco's modified Eagle's medium containing 1% calf serum and 1.6 μM biotin at 38° C. in a CO2 incubator. When cells achieved a density of about 10^6 per dish, the spent medium was removed and replaced with fresh medium containing 0.5% calf serum and different amounts of the two peptides. Four days later the number of cells in each culture was counted. Each value is the mean of 3 separate cultures.
To delineate the sequence of the smallest peptide that could stimulate renal cell growth, synthetic peptides of different lengths were prepared (see below), and purified by reversed-phase HPLC on a C18 column.
The peptide of interest was then purified on a reversed-phase C18 column HPLC as described herein using a gradient of 1-80% acetonitrile in 0.1% trifluroacetic acid (TFA). The purified peptide was then lyophilized to remove the acetonitrile and TFA and the lyophilized powder was weighed, dissolved in buffer and added to the culture medium to measure its effect on the growth of monkey kidney epithelial cells as described herein. […] A value termed the K1/2, was used.

3T3 fibroblasts = assay: Growth of 3T3 fibroblasts; type: cell-based, murine
[2] = Stability of growth-promoting activity to storage, enzyme, chemicals, heat and solvents; type: physicochemical
Description: For the assay, cells were detached from the dish with a solution of trypsin and an aliquot was counted in a hemocytometer. […] Thus WGF stimulated cell proliferation by 30% in this assay. When high-density, quiescent cultures (3×10^6 cells/55-mm dish) were used to assay mitogenic activity by measuring [^3H]thymidine incorporation into DNA, WGF enhanced DNA synthesis about 60%. To prepare WGF, cells can be scrape-wounded every other day, yet maximal activity will be released into the conditioned medium. WGF is mitogenic for both sparse and confluent cultures of BSC-1 cells, and is stable upon storage at 4° C. to −40° C. for many weeks.
WGF activity was also stable in 0.1% trifluoroacetic acid (TFA) (J. T. Baker, HPLC grade) and isopropanol.

BSC-1 cells = assay: Appearance or release of WGF growth-promoting activity from BSC-1 cells (scrape wounding, heparinase); type: cell-based, African green monkey; conditions: confluent monolayer treated with the enzyme
Protocol: None of these agents inhibited cell growth when added to cells of nonwounded cultures. When added to the medium after the appearance of WGF mitogenic activity, neither PMSF nor aprotinin appeared to inhibit the increment in cell proliferation.
Confluent monolayer cultures were mechanically scraped using a 200 μL pipet tip (Continental Laboratory Products, San Diego, Calif.). […] (This process of scraping the cells has been termed “wounding” and has been used for many years as a model system to study repair of corneal abrasions of the eye. In effect, pressure is applied to cells sufficient to disrupt intercellular adhesion). To determine whether kidney epithelial cells released an autocrine growth factor into the medium after wounding, conditioned culture medium was removed from the culture dish after scrape-wounding a monolayer of BSC-1 cells. An aliquot was assayed for any growth-promoting activity on a nonwounded “detector” culture (1.2×10^6 cells per […]).
Treatment of a confluent monolayer of BSC-1 cells with the enzyme heparinase I (Sigma), but not heparinase III (Sigma), releases WGF mitogenic activity from cells into the culture media. However, this seems to deplete WGF, at least temporarily. When cells are first treated with heparinase I, rinsed, the media aspirated, and the monolayer is then scrape-wounded, no growth-promoting activity is detected in the conditioned media.

## AQPYPQGNHEA
[1]; maximal concentrations, 11-mer with wound conditioned buffer
  combined mitogenic effect with WGF (additivity): not additive
[1]; peptide 0.5 to 20 μg/ml, four days
  mitogenic activity on BSC-1 cells (in words): to the same extent as did purified WGF protein
[1]; peptide alone, BSC-1 cells, 4 days in culture, read-out: Growth-Stimulation K½
  EC50: 260 nM
3T3 fibroblasts
  mitogenic activity on 3T3 fibroblasts: did not stimulate growth

## basic fibroblast growth factor [basic FGF, reference compound]
[1]
  concentration equivalent in mitogenic potency to partially-purified WGF: 0.02 ng/mL
[1]; agent alone at maximal mitogenic concentration (14-Ser 0.5 μg/ml; EGF, IGF-I 50 ng/ml; acidic FGF 100 pg/ml; basic FGF 1,000 pg/ml; vasopressin 75 pg/ml; K 10.4 mM; Na 180 mM)
  stimulation of growth (increase in cell number compared to control at four days): 18%
[1]; mitogenic signal at maximal concentration plus 14-Ser peptide 0.5 μg/ml, four days
  stimulation of growth in the presence of the 14-Ser peptide: 41%
[2]
  inhibition of mitogenic activity by 55% acetonitrile/0.1% (TFA): 90%

B1: heparinase III: enzyme heparinase III (Sigma) (protein, UniProt Q59289 25-659, looked up)
Heparin-sulfate lyase: QSSSITRKDFDHINLEYSGLEKVNKAVAAGNYDDAAKALLAYYREKSKAREPDFSNAEKPADIRQPIDKVTREMADKALVHQFQPHKGYGYFDYGKDINWQMWPVKDNEVRWQLHRVKWWQAMALVYHATGDEKYAREWVYQYSDWARKNPLGLSQDNDKFVWRPLEVSDRVQSLPPTFSLFVNSPAFTPAFLMEFLNSYHQQADYLSTHYAEQGNHRLFEAQRNLFAGVSFPEFKDSPRWRQTGISVLNTEIKKQVYADGMQFELSPIYHVAAIDIFLKAYGSAKRVNLEKEFPQSYVQTVENMIMALISISLPDYNTPMFGDSWITDKNFRMAQFASWARVFPANQAIKYFATDGKQGKAPNFLSKALSNAGFYTFRSGWDKNATVMVLKASPPGEFHAQPDNGTFELFIKGRNFTPDAGVFVYSGDEAIMKLRNWYRQTRIHSTLTLDNQNMVITKARQNKWETGNNLDVLTYTNPSYPNLDHQRSVLFINKKYFLVIDRAIGEATGNLGVHWQLKEDSNPVFDKTKNRVYTTYRDGNNLMIQSLNADRTSLNEEEGKVSYVYNKELKRPAFVFEKPKKNAGTQNFVSIVYPYDGQKAPEISIRENKGNDFEKGKLNLTLTINGKQQLVLVP
BSC-1 cells
  release of WGF mitogenic activity from cells into the culture media: not
